Patent publication US20140154180A1, “Pharmacophores for Amyloid Fibers Involved in Alzheimer's Disease” (The Regents of the University of California, priority 2011, published 2014)
“Also recorded” adds a separate entry of the source.

Assays:
[1] = system: Aβ toxicity to PC12 cells; test: MTT cell viability assay, rescue from Abeta toxicity, PC12 cells; assay type: cell-based; conditions: Table 7; scaled cell survival rate, buffer-treated cell 100%, Abeta-treated cell 0%; Abeta 0.5 μM; 12 h incubation
Excerpt: (§1) We tested candidate compounds by the MTT-based cell proliferation/viability assay, as described on the ATCC web site. Briefly, the ATCC MTT Cell Proliferation Assay quantitates the reduction of the yellow tetrazolium salt (MTT) in response to an external factor, such as treatment with a compound of the present invention, as a measure of a cell population's response to the external factor. The assay measures the cell proliferation rate and conversely, when metabolic events lead to apoptosis or necrosis, the reduction in cell viability. In our tests, Hela and PC12 cell lines were used to assess the toxic effect of Abeta protein. Abeta at 0.5 μM was a positive control. The small molecule inhibitors were added to samples with different concentrations (such as 2.5 μM). After 12 h incubation at room temperature, the absorbance of reduced MIT was measured at 570 nm. Each of the experiments was repeated 3 times with 4 replicates per sample per concentration. Our MTT cell viability assay quantified the percentage of survival cells upon the treatment of the mixture of Abeta and compound inhibitors. The rescuing percentage of each compound was calculated by normalizing the survival percentage using the buffer-treated cell as 100% viability and Abeta-treated cell as 0% viability.

[2] = system: Aβ toxicity to Hela cells; test: MTT cell viability assay, rescue from Abeta toxicity, Hela cells; assay type: cell-based; conditions: Table 7; scaled cell survival rate, buffer-treated cell 100%, Abeta-treated cell 0%; Abeta 0.5 μM; 12 h incubation
Excerpt: as §1

Aβ fibrillation = Aβ fibrillation (Homo sapiens, UniProt P05067); test: Electron microscopy (EM) of Aβ with BAF compounds; conditions: Aβ with compound right before adding to the cell medium
[3] = target: T1, KLVFFA (SEQ ID NO: 1) fibers (Homo sapiens, UniProt P05067); test: 1H NMR titration with KLVFFA fibers; assay type: binding; conditions: compound 100 μM, increasing KLVFFA fiber concentrations, 283 K; read-out: apparent dissociation constant (Kd)
T1 construct: host or cells: chemically synthesized peptide
Protocol: As a validation of our computational approach, we used nuclear magnetic resonance (NMR) to characterize the interactions between our BAF compounds and KLVFFA (SEQ ID NO: 1) and Aβ fibers.
NMR samples contained 550 μL of designed compounds were added from 1 mM stocks in H2O to a final concentration of 100 μM. Fibrillar KLVFFA (SEQ ID NO: 1) and Abeta were added at the indicated concentrations. 500 MHz ^1H NMR spectra were collected on a Bruker DRX500 at 283 K. H2O resonance was suppressed through presaturation. Spectra were processed with XWINNMR 3.6.

[4] = system: Aβ toxicity to Hela and PC12 cell lines; test: MTT cell viability assay, Abeta toxicity, cell line not given; assay type: cell-based; conditions: FIG. 17B
Excerpt: as §1

[5] = target: T2, VQIVYK (SEQ ID NO: 2) segment from the tau protein (Homo sapiens, UniProt P10636); test: LC-MSMS analysis of co-crystals, molar ratio, VQIVYK
T2 construct: host or cells: chemically synthesized peptide
Excerpt: Liquid chromatography tandem mass spectrometry (LC-MSMS) was used to measure the molar ratios of the peptide segments and the small molecules within the crystals. Authentic samples of the peptides and each of the small molecules were used to prepare standard response curves. Crystals from each of the four mixtures of peptides and small compounds were individually picked (using a sharpened glass capillary) and re-dissolved in 5%-10% acetonitrile. The samples were divided into two aliquots, one for the peptide analyses and the other for the small molecule analyses, and the amount of each component in the samples was interpolated using the standard curves.
Peptide standards (dry powder of VQIVYK (SEQ ID NO: 2) and KLVFFA (SEQ ID NO: 1)) were dissolved in water and prepared in concentrations ranging from 0.05 μM to 0.01 mM in 0.1% TFA. […] Data were collected in the positive ion multiple reaction monitoring (MRM) mode in which the intensity of specific parent→fragment ion transitions were recorded (VQIVYK (SEQ ID NO: 2), m/z 749.5→341.3, 749.5→409.4, 749.5→440.3, 749.5→522.5; KLVFFA (SEQ ID NO: 1), 724.4→84, 724.4→488.3, 362.7→84, 362.7→120.1). […]

Aβ fibrillation, sequence (P05067 672-713): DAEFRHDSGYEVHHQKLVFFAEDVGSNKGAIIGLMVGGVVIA

Compound	Rescuing Percentage PC12 [1] [%]	Rescuing Percentage Hela [2] [%]	inhibition of Aβ fibrillation (EM) (Aβ fibrillation)	Kd [3] [µM]	dose dependence of reduction of Aβ cytotoxicity [4]	VQIVYK segments for each small molecule [5]
O=C1OC2(c3ccccc31)c1cc(Br)c(O)c(Br)c1Oc1c2cc(Br)c(O)c1Br [BAF1]	44.3	41.3	do not inhibit Aβ fibrillation	~12	–	–
Cc1ccc(O)c(N=Nc2c(O)cc(S(=O)(=O)O)c3ccccc23)c1 [BAF8]	25.1	27.1	do not inhibit Aβ fibrillation	~24	–	–
O=c1c(O)c(-c2cc(O)c(O)c(O)c2)oc2cc(O)cc(O)c12 [BAF26]	85.5	51.4	–	–	–	–
CCCN1CCc2cc(O)cc3c2C1Cc1ccc(O)c(O)c1-3 (centres unmarked) [BAF31]	92.6	83.0	do not inhibit Aβ fibrillation	–	reduce Aβ cytotoxicity in a dose dependent manner; also recorded: reduce Aβ cyto-toxicity in a dose dependent manner	–
CC(=C(C#N)C#N)c1ccc2cc(N(C)C)ccc2c1 [DDNP, 1,1-Dicyano-2-[6-(dimethylamino)naphthalen-2-yl]propene]	–	–	–	–	–	~400
O=S(=O)(O)c1cc(S(=O)(=O)O)c2c(/N=N/c3ccccc3)c(O)ccc2c1 [Orange-G, reference compound]	–	–	–	~43	–	–
COc1cc(/C=C/C(=O)CC(=O)/C=C/c2ccc(O)c(OC)c2)ccc1O [curcumin, Curcumin]	–	–	–	–	–	~100
